Patent publication US20040142977A1, “4-Substituted-picolinic acid amide derivatives useful as fungicides” (priority 2001, published 2004)

- melting point: 160 °C
SMILES: O=Cc1ccnc(C(=O)Nc2ccc(Oc3ccc(C(F)(F)F)cc3)cc2)c1O [1-2, 2-{N-para-[4-(trifluoromethylphenoxy)phenyl]} aminocarbonyl-3-hydroxy-4-formyl pyridine]
